US11147219B2, “Methods and systems for growing plants using silicate-based substrates, cultivation of enhanced photosynthetic productivity and photosafening by utilization of exogenous glycopyranosides for endogenous glycopyranosyl-protein derivatives, and formulations, process and systems for the same” (Innovation Hammer, LLC, priority 2011, dated 2021)
Several values for one entry are separate records, joined by “and”; a condition that tells them apart may be missing. Equal values may be shown once.

How the values were obtained:
Assay type in all cases: in vivo
[1] = system: radish "Cherry Bell" Raphanus sativus L.; test: Greenhouse foliar treatment of radish, root dry weight
Procedure: Plant responses to formulations of an alkyl-α-D-mannopyranose and an electron donating-aryl-α-D-mannopyranose were consistent with preferred binding tendencies to displace glucose from storage. Plants were maintained in automated greenhouses controlled for temperature, light and circulation. Environmental conditions during the course of the studies averaged 13:11 hour L:D photoperiod, 25°:20° C. day:night and 20% to 80% relative humidity. Sunlight was supplemented with electrical illumination to achieve photosynthetically active radiation levels ranging from 350 to 600 μmol photons·m^−2·s^−1 at the level of the phylloplane. Solutions for treated and control plants were applied within an hour, otherwise subjecting all plants to identical conditions consistent with good laboratory practices. Solutions applied to controls included nutrients and surfactants identical to the treatment solution, but without the active compound. General supplementation of foliar formulations included the following: 10-100 mM ammonium salt; 1-6 ppm manganese, Mn-EDTA; and 5-10 ppm calcium, Ca-EDTA. For example, foliar solutions of 0.3 mM p-aminophenylmannopyranoside, hereafter referred to as APM, were supplemented with 23 mM ammonium sulfate, (NH4)2SO4, 3 ppm Mn and 6 ppm Ca; and Nutrient Control contained 23 mM (NH4)2SO4, 3 ppm Mn and 6 ppm Ca. The foliar concentrations of Mn and Ca were higher than those specified previously because of the low volumes of foliar applications relative to hydroponic root immersion volumes, and they were particularly effective in combination with foliar applications of compounds because they supported high rates of productivity in the treated plants without phytotoxicity. Compounds for experimentation included the following: methyl-α-D-mannopyranoside (MeM), APM, and methyl-α-D-glucopyranoside (MeG). All foliar solutions were formulated with 1 gm/liter surfactant blend consisting of 0.5 gram DowCorning Q5211 dispersed into 1.5 grams BASF Pluronic L62. As a matter of course, untreated controls that foliar nutrients and wetting agents were not introducing artifacts. The standard volume for foliar application of experimental treatments was 200 liters/hectare. Identical volumes of foliar spray per tray of plant cultures were applied mechanically in a single pass. Controls were placed in the same location and given identical irrigation and handling as the treated plants. To compare the effects of treatments under tightly controlled conditions, plants were cultured, harvested, cleaned and weighed as per previously described methods. Treated plants were statistically analyzed in comparisons against controls. Each survey population held sufficient replicate sample numbers to make meaningful statistical analyses utilizing SPSS® software. Significance was determined at the 95% confidence interval (CI) of the difference. Counts of population numbers are denoted as “n” values. For experiments, radish “Cherry Bell” Raphanus sativus L., a root crop was planted and treated. […] Therefore, least concentrations were selected for statistical experimentation; and 200 l/ha foliar 1 mM MeM or 0.3 mM APM in nutrient-supplemented formulations were applied to 5 cm tall sprouts; while, Nutrient Controls were given foliar applications of identical solutions without the α-D-glycopyranosides; and no foliar solutions were applied to untreated controls which were otherwise identically cultivated and irrigated. For our quantification experiments, when improvements of root productivity over those of nutrient controls were visibly discernible 12 d after treatment, all populations of controls and treatments were harvested, and individual dry weights of treatment and control populations were analyzed.

Radish seedlings = test: Radish seedling assay, immersion in nutrient solution with α-mannosides
Procedure: Plants were cultured in research facilities and consistency of response to treatments was achieved by supplementation with chelated calcium and manganese. All plants were regularly given modified Hoagland water-culture nutrients. […] Controls were placed in the same location and all plants were given the same irrigation, fertilizers, and handling, but without the experimental compounds. Plants were matched to controls and treated within a week of emergence of cotyledon and true leaves. The performance of compounds was evaluated by comparing means of individual dry weights of shoots and roots. Statistics applied two-tailed Student's t-test with p-values significant within 95% confidence intervals. Counts of populations are “n” values and standard error is denoted “±SE.” Specialty chemicals included the following: tetramethyl-β-D-glucoside (TMG); tetraacetyl-D-glucopyranose (TAG); pentaacetyl-α-D-mannopyranose (MP); p-amino-phenyl-α-D-mannoside (APM); methyl-α-D-mannoside (MeM) and methylglucoside (MeG). MPG was synthesized. 2,3,4,6-tetra-O-acetyl-D-mannopyranose (αβ) was utilized. As required, MP and APM were dissolved in a lower aliphatic alcohol prior to dilution in aqueous media.
Assay—Radish seedlings were treated with α-mannosides after emergence of radicles. Seedlings were matched and transferred to Nutrient Control or treatment solutions. Assays were maintained under environmental conditions as follow: Photosynthetically active radiation 100 μEin·m^−2·sec^−1, diel cycle of 16:8 h light:dark, 26:26° C.

[2] = system: radish (Raphanus sativus L., cultivar "Cherry Bell"); test: Radish seed germination and seedling growth, nutrient omission media; conditions: glycoside alone, no divalent cations
Procedure: Treatment of seeds and seedlings by aqueous solutions is exemplified by mannosides supplemented with soluble divalent cations in complete mannosides formulations. […] Benefits of such exemplary seed priming methods are as follows: Germination and early growth of radish (Raphanus sativus L., cultivar “Cherry Bell”) and Swiss Chard (Beta vulgaris subspecies cicla L., cultivar “Fordhook® Giant”) were tested for response to α-mannosides supplemented with Ca^2+ and/or Mn^2+. Rapid assays of radish seed germination and growth used hydroponic cultures with no solid medium; longer experiments with Swiss Chard used a 2-5 mm substratum of 700 μm diameter glass microbeads. Neutralization of glass microbeads may be undertaken with dilute mildly acidic solution titrated to pH 6; for example, with mineral acids such as hydrochloric acid, sulfuric acid, nitric acid, and the like; organic acids such as uronic, citric, malic, lactic, salicylic, ascorbic, succinic, oxaloacetic, ketoglutaric, fumaric acids, and amino acids, and the like; artificial biological buffering agents such as TRIS, BIS TRIS, MES, MOPS, HEPES, and the like; fertilizers; and most preferably, phosphates; and the most highly preferred compounds are combinations of compounds in a pH 6-buffer that provide major nutrients for plants, such as MAP with DKP or DAP with MKP; and the like. When test medium was added, the glass microbeads formed an even layer, drawing liquid to the surface by capillary action. Seeds were examined to exclude aberrantly large, small, or damaged seeds, and were placed on the surface of the substratum. For experiments using post-germination seedlings, seeds were germinated in deionized water prior to exposure to nutrient media. A seed with an emerged radicle >1 mm was recorded as germinated, and germinated seeds were counted daily, until 95% germination. There was no visible evidence of either desiccation or waterlogging effects. Glass microbeads were removed by immersion and agitation in water, or manually with fine forceps. Harvested plants were oven-dried to determine dry weight. Treatment and control solutions were prepared by dissolving nutrients in deionized ultrapure water.
Growth media were based on omission or inclusion of glycosides and targeted divalent cations. Triose is the abbreviation for α-1,3-α-1,6 mannotriose) and MEM is methyl-α-D-mannoside. Terminology used herein indicates the omission or inclusion of nutrients: 000=control medium with no glycoside, Ca^2+ or Mn^2+; MeMOO=medium with MeM, but no Ca^2+ or Mn^2+; MeMCaO=medium with MeM and Ca^2+, but no Mn^2+, OCaMn=medium with no MeM, but with Ca^2++Mn^2+; and so on. Similar terminology is used for media containing triose. Results cited are means±SE. […]

[3] = system: Swiss Chard (Beta vulgaris subspecies cicla L., cultivar "Fordhook Giant"); test: Swiss Chard germination and seedling growth on glass microbead substratum; conditions: media containing 100 μM MeM
Procedure: Treatment of seeds and seedlings by aqueous solutions is exemplified by mannosides supplemented with soluble divalent cations in complete mannosides formulations. […] Benefits of such exemplary seed priming methods are as follows: Germination and early growth of radish (Raphanus sativus L., cultivar “Cherry Bell”) and Swiss Chard (Beta vulgaris subspecies cicla L., cultivar “Fordhook® Giant”) were tested for response to α-mannosides supplemented with Ca^2+ and/or Mn^2+. Rapid assays of radish seed germination and growth used hydroponic cultures with no solid medium; longer experiments with Swiss Chard used a 2-5 mm substratum of 700 μm diameter glass microbeads. […] A seed with an emerged radicle >1 mm was recorded as germinated, and germinated seeds were counted daily, until 95% germination. […]

## CO[C@H]1O[C@H](CO)[C@@H](O)[C@H](O)[C@@H]1O [MeM, methyl-α-D-mannopyranoside]
[1]; foliar 1 mM with nutrients
  root mean dry weight over the Nutrient Control: highly significant (n=72; p=0.001) increase
[1]; foliar 1 mM, 200 l/ha, harvest 12 d after treatment, n=72, p=0.001
  root weight increase over controls: 30%
[1]; foliar, radish
  active concentration applied for growth response: 1 mM
Radish seedlings; 25 μM, 48 h
  enhancement of mean dry weight over Nutrient Control: 12% and ~11%
  mean dry weight of whole plants: 10 mg
Radish seedlings; 50 μM, 48 h
  enhancement of mean dry weight over Nutrient Control: 11%
  mean dry weight of whole plants: 11 mg
Radish seedlings; 100 μM, 48 h
  mean dry weight of whole plants: 10.9 mg
Radish seedlings; 500 μM, 24 h
  visual comparison with Nutrient Control: enhanced pigmentation and general growth
Radish seedlings; 500 μM, 48 h
  enhancement of mean dry weight over Nutrient Control: 11%
  mean dry weight of whole plants: 10.3 mg
Radish seedlings; 48 h, 1 mM TAM, 100 μM MP, 25 μM to 500 μM MeM, 10 μM APM
  growth response compared to Nutrient Control (visual): advanced growth responses
[2]
  effect on plant growth / seedling yields without Ca2+ and Mn2+: no significant effect
[3]
  germination rates compared with media without the glycoside: consistently higher
